{"source": "patent US20170304251A1", "about": "“AVOCADO-DERIVED LIPIDS FOR USE IN TREATING LEUKEMIA” (priority 2014, published 2017)", "assay_type_in_all_cases": "cell-based", "key": {"TEX cells [1]": {"system": "TEX cells", "test": "Propidium iodide staining and flow cytometry (Example 6)", "conditions": "increasing concentrations up to 10 micromolar", "experimental": "Avocadyne, avocadene and avocatin B were tested for their toxicity to leukemic cells using TEX cells. The TEX cells were treated with increasing concentrations of each lipid (up to 10 micromolar) and subsequently stained with propidium iodide (PI), which stains only dead cells. The percent viability was measured using flow cytometry gating on PI positive and PI negative cells."}, "TEX cells [2]": {"system": "TEX cells", "test": "Hypoxia experiments, sulforhodamine B assay", "experimental": "(A) Jurkat T cells were cultured in 50 ng/ml of ethidium bromide, […] sodium pyruvate and 50 μg/ml uridine for 60 days to create Jurkat-EtBr cells which lack functional mitochondrial. To confirm that Jurkat-EtBr cells lack mitochondria, the mitochondria specific markers adenine nucleotide translocator (ANT) and complex I (ND1) were measured by Western blotting. (B) Avocatin B's activity was tested in cells with (JURK) and with reduced (JURK-EtBr) mitochondria. Viability was measured by the ANN/PI assay and flow cytometry and data are presented as mean percentage of live cells (i.e., ANN/PI^−)±SD from representative experiments. […] Cell viability was measured by the sulforhodamine B assay, as described in the methods, following a 72 hour incubation period. Data are presented as percent viable. (D) Uncoupling protein 2 (UCP2) was measured in whole cell lysates of avocatin B (10 μM) or DMSO-control treated TEX cells by Western blotting. Arbitrary units (AU) are presented as fold change (compared to the 6 hour time point) and were calculated by dividing each treatment lane by the densitometry of its loading control. Densitometry was calculated as outlined in the methods.\nCell growth and viability were measured by the sulforhodamine B assay (Sigma Chemical) as previously described^8 following 72 hours of incubation."}, "TEX leukemia cells": {"system": "TEX leukemia cells", "test": "MTS cell growth and viability assay, 72 hours", "experimental": "Leukemia (OCI-AML2) cells were cultured in Iscove's Modified Dulbecco's Medium (IMDM) (Life Technologies; Grand Island, N.Y.) supplemented with 10% Fetal Bovine Serum (FBS; Seradigm; Providence, Utah) and antibiotics ([…]; Sigma Chemical; St. Louis, Mo.). TEX leukemia cells were cultured in 15% FBS, antibiotics and 2 mM L-glutamine (Sigma Chemical), 20 ng/ml stem cell factor and 2 ng/ml IL-3 (Peprotech; Hamburg Germany). Primary human samples (fresh and frozen) were obtained from the peripheral blood of AML patients who had at least 80% malignant cells among the mononuclear cells and cultured at 37° C. in IMDM, 20% FBS and antibiotics (see table 1a and 1 b for clinical parameters). […] Cell growth and viability was measured using the 3-(4,5-dimethylthiazol-2-yl)-5-(3-carboxymethoxyphenyl)-2-(4-sulfophenyl)-2H-tetrazolium inner salt (MTS) reduction assay (Promega; Madison, Wis.) according to the manufacturer's protocol and as previously described^7. Cells were seeded in 96-well plates, treated with drug for 72 hours and optical density (OD) was measured at 490 nm. Cell viability was also assessed by the trypan blue exclusion assay and by Annexin V and PI staining (Biovision; Mountainview, Calif.), as previously described^7. […] After 72 hours, cell proliferation and viability were measured by the MTS assay."}, "TEX cells [3]": {"system": "TEX cells", "test": "Reactive oxygen species detection (DCFH-DA, DHE, flow cytometry)", "source_text": "Reactive oxygen species (ROS) were detected using 2′,7′dichlorohydrofluorescein-diacetate (DCFH-DA; Sigma Chemical) and dihyodroethidium (DHE; Sigma Chemical). DCFH-DA is hydrolyzed by intracellular esterase to produce a non-fluorescent DCFH product. It can then be oxidized by ROS to produce a highly fluorescent DCF product^14. DHE is a superoxide indicator which upon contact with superoxide anions produces the fluorescent product 2-hydroxyethidium^15. Following drug treatment, TEX cells (5×10^5) were collected and washed in PBS (Sigma-Aldrich). Cells were stained with 5 μM (final concentration) DCFH-DA or 10 μM DHE and allowed to incubate for 30 minutes in a humidified atmosphere containing 5% CO2 at 37° C. Samples were then washed in PBS and ROS was measured by flow cytometry using the Guava EasyCyte 8HT (Millipore). Data were analyzed with GuavaSoft 2.5 software (Millipore)."}, "TEX cells [4]": {"system": "TEX cells", "test": "ANN/PI viability of TEX cells with antioxidants or etomoxir", "conditions": "100 μM, 72 hours", "experimental": "FIG. 6: Avocatin B inhibits fatty acid oxidation resulting in reduced NADPH and elevated ROS. (A) Illustration of fatty acid oxidation in mitochondria. Long chain fatty acids (LCFA) enter the mitochondria via CPT1 for fatty acid oxidation to yield acetyl-CoA. Acetyl-CoA enters the TCA cycle to generate NADPH, an enzymatic co-factor and antioxidant. (ME: malic enzyme; IDH: isocitrate dehydrogenase; α-KG: α-ketoglutarate). (B) Oxidation of exogenous fatty acids was assessed by measuring the oxygen consumption rate (OCR) in TEX cells treated with palmitate (175 μM), avocatin B (10 μM), avocatin B and palmitate or palmitate and etomoxir (100 μM). […] Effects on fatty acid oxidation were measured with the Seahorse Bioanalyzer, as detailed in the methods section, and (C) quantified by peak area after oligomycin and CCCP treatment, as described by the manufacturer's protocol and detailed in the methods. […] Viability was measured by the ANN/PI assay and data are presented as mean percentage of viable cells (i.e., ANN^−/PI^−)±SD from representative experiments. […] Data, percentage of NADH compared with vehicle control-treated cells±SD; (H) GSH was measured in TEX cells in the presence or absence of NAC using a commercially available fluorimetric assay following treatment with avocatin B ([…]), according to the manufacturers protocol. […]"}, "TEX cells [5]": {"system": "TEX cells", "test": "NADPH, NADH and GSH fluorimetric detection", "conditions": "avocatin B 10 μM, etomoxir 100 μM; also in the presence of palmitate 175 μM", "experimental": "Nicotinamide adenine dinucleotide phosphate (NADPH), nicotinamide adenine dinucleotide (NAD) and glutathione (GSH) were measured by commercially available fluorimetric kits (e.g. Amplite™ Fluorimetric kit (AAT Bioquest; Sunnyvale, Calif.) according to the manufacturers' protocol and as previously described^16, following incubation of increasing duration with avocatin B (10 μM). For NAPDH studies, cells were also incubated with palmitate (175 μM) in the presence or absence of etomoxir. For NADH and GSH studies, cells were incubated in the presence of palmitate and N-acetylcysteine (NAC; 1 mmol/L), respectively. Data are presented as a percent NAD, NADPH or GSH compared to control treated cells±SD."}, "[6]": {"system": "fatty acid oxidation in TEX cells", "test": "Fatty acid oxidation, oxygen consumption rate (Seahorse XF24)", "conditions": "avocatin B 10 μM, etomoxir 100 μM, palmitate 175 μM", "experimental": "Measurement of oxygen consumption rates were performed using a Seahorse XF24 extracellular flux analyzer (Seahorse Bioscience; North Billerica, Mass.). TEX cells were cultured in α-Minimum Essential Medium (Life Technologies) containing 1% FBS and plated at 1×10^5 cells/well in poly-L-Lysine (Sigma Chemical) coated XF24 plates. Cells were incubated with etomoxir (100 μM; Sigma Chemical) or vehicle control for 30 minutes at 37° C. in a humidified atmosphere containing 5% CO2. Next, palmitate (175 μM; Seahorse Bioscience) or avocatin B (10 μM) was added and immediately transferred to the XF24 analyzer. Oxidation of exogenous fatty acids was determined by measuring mitochondrial respiration through sequential injection of 5 μM (final concentration) oligomycin, an ATP synthase inhibitor, (Millipore, Billerica, Mass.), 5 μM CCCP, a hydrogen ion ionophore, (Sigma Chemical), and 5 μM rotenone (Millipore)/5 μM antimycin A, which inhibit complex III activity, (Sigma Chemical). Fatty acid oxidation was determined by the change in oxygen consumption following oligomycin and CCCP treatment and prior to antimycin and rotenone treatment, according to the manufacturer's protocol and as described in Abe et al. (2013)^13. Data were analyzed with XF software (Seahorse Bioscience)."}, "[7]": {"conditions": "72 hours, avocatin B 2 μM, antimycin A 1 μM, rotenone 3 μM, daunorubicin 5 nM, cytarabine 4 nM"}}, "note": "Like-named read-outs stand apart in the source and are kept apart here.", "data": [{"molecule": "C=CCCCCCCCCCCCC(O)CC(O)CO", "note": "(stereo not shown) [avocadene]", "values": [{"measurement": "amount of cell death (PI positive) in TEX cells, rank among the lipids", "setting": "TEX cells [1]", "result": "least amount of cell death"}]}, {"molecule": "antimycin", "values": [{"measurement": "activity in hypoxic (1% oxygen) versus normoxic (21% oxygen) conditions", "setting": "TEX cells [2]; [7]", "result": "reduced"}]}, {"molecule": "C#CCCCCCCCCCCCC(O)CC(O)CO", "note": "(stereo not shown) [avocadyne]", "values": [{"measurement": "cytotoxicity toward TEX cells", "setting": "TEX leukemia cells", "result": "induce cytotoxicity"}, {"measurement": "ROS activity of avocatin analogues", "setting": "TEX cells [3]; Example 5, FIG. 12", "result": "induce ROS activity"}, {"measurement": "ROS activity of avocatin analogues", "setting": "TEX cells [3]; Example 5, FIG. 12, listed as Avoadyne", "result": "induce ROS production"}, {"measurement": "amount of cell death (PI positive) in TEX cells, rank among the lipids", "setting": "TEX cells [1]", "result": "greatest amount of cell death"}]}, {"molecule": "cytarabine", "values": [{"measurement": "activity in hypoxic (1% oxygen) versus normoxic (21% oxygen) conditions", "setting": "TEX cells [2]", "result": "unaffected"}]}, {"molecule": "CCOC(=O)[C@@]1(CCCCCCOc2ccc(Cl)cc2)CO1", "note": "[etomoxir]", "values": [{"measurement": "effect of etomoxir on TEX viability", "setting": "TEX cells [4]", "result": "does not impart toxicity"}, {"measurement": "effect of etomoxir on TEX viability", "setting": "TEX cells [4]; listed as Etomoxir", "result": "did not reduce viability"}, {"measurement": "reduction in NADPH", "setting": "TEX cells [5]", "result": "~50", "unit": "%"}, {"measurement": "oxidation of exogenous palmitate (oxygen consumption rate)", "setting": "[6]", "result": "blocked"}]}, {"molecule": "COc1cccc2c1C(=O)c1c(O)c3c(c(O)c1C2=O)C[C@@](O)(C(C)=O)C[C@@H]3O[C@H]1C[C@H](N)[C@H](O)[C@H](C)O1", "note": "[daunorubicin]", "values": [{"measurement": "activity in hypoxic (1% oxygen) versus normoxic (21% oxygen) conditions", "setting": "TEX cells [2]; [7]", "result": "unaffected"}]}, {"molecule": "C#CCCCCCCCCCCCC(O)CC(O)COC(C)=O", "note": "(stereo not shown) [avocadyne acetate]", "values": [{"measurement": "cytotoxicity toward TEX cells", "setting": "TEX leukemia cells", "result": "induce cytotoxicity"}, {"measurement": "ROS activity of avocatin analogues", "setting": "TEX cells [3]; Example 5, FIG. 12", "result": "induce ROS activity"}, {"measurement": "ROS activity of avocatin analogues", "setting": "TEX cells [3]; Example 5, FIG. 12, listed as Avocadyne Acetate", "result": "induce ROS production"}]}, {"molecule": "C=C(C)[C@H]1Cc2c(ccc3c2O[C@@H]2COc4cc(OC)c(OC)cc4[C@@H]2C3=O)O1", "note": "[rotenone]", "values": [{"measurement": "activity in hypoxic (1% oxygen) versus normoxic (21% oxygen) conditions", "setting": "TEX cells [2]; [7]", "result": "reduced"}]}]}
